One may read the IC50 as the concentration at which inhibition is half-maximal. A high value points to weaker potency.

In the experiment the target is OGG1 (Homo sapiens (Human), UniProt O15527). The experiment in a line: In vitro OGG1 activity assay. Conditions: 800 pM OGG1 enzyme, 2 nM human APEX1, 10 nM 8-oxoA:C substrate. The format is biochemical. As for the experimental part: Method 1: In Vitro OGG1 Activity Assay OGG1 activity is assayed by measuring the increase in fluorescence from a duplex oligonucleotide containing an OGG1 substrate and a fluorophore in close proximity that are quenched by a quencher on the complementary strand. […] OGG1 activity releases the substrate base from DNA by cleaving the N-glycosidic bond between base and deoxyribose. The resulting apurinic site is cleaved by an excessive amount APEX1 activity which cause the duplex to melt, which in turn cause the fluorophore to become unquenched. Compounds to be tested are dissolved in DMSO and nano-dispensed directly into black 384-well plates, followed by transfer of enzyme and substrate solutions. […] The fluorescent signal is recorded in a plate reader equipped with suitable filters to register fluorescein fluorescence.
Chain of OGG1 (O15527 whole entry): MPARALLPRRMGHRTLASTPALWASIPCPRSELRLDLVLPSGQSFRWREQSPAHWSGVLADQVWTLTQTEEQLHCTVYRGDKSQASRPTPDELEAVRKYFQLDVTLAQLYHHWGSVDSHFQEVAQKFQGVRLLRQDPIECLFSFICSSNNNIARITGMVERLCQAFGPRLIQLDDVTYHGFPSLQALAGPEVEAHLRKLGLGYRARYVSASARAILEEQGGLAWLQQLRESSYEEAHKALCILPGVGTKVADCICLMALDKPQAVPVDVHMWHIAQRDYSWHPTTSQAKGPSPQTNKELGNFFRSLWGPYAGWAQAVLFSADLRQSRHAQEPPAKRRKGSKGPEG

The compound `O=c1[nH]c2c(Br)cccc2n1[C@H]1CC[C@@H](C(=O)Nc2cccc(O)c2)CC1` [Example 196, Cis-4-(4-bromo-2-oxo-2,3-dihydro-1H-1,3-benzodiazol-1-yl)-N-(3-hydroxyphenyl)cyclohexane-1-carboxamide] came in with an IC50 of 647 nM.

Consider `O=c1[nH]c2c(Br)cccc2n1[C@H]1CC[C@@H](C(=O)Nc2ccc(C(F)(F)F)cc2)CC1` [Example 133, (Cis)-4-(4-bromo-2-oxo-2,3-dihydro-1H-1,3-benzodiazol-1-yl)-N-[4-(trifluoromethyl)phenyl]cyclohexane-1-carboxamide], for which the IC50 is 865 nM.

With `COc1cc(NC(=O)[C@H]2CC[C@@H](n3c(=O)[nH]c4c(OCCC(C)C)cccc43)CC2)ccc1C` [Example 325, Cis-N-(3-methoxy-4-methylphenyl)-4-[4-(3-methylbutoxy)-2-oxo-2,3-dihydro-1H-1,3-benzodiazol-1-yl]cyclohexane-1-carboxamide], the IC50 was found to be 314 nM.

With `COC(=O)NC1CCN(c2cccc3c2[nH]c(=O)n3[C@H]2CC[C@@H](C(=O)Nc3ccc(C)c(OC)c3)CC2)C1` (stereo partly drawn) [Example 316, Methyl N-(1-{2-oxo-1-[cis-4-[(3-methoxy-4-methylphenyl)carbamoyl]cyclohexyl]-2,3-dihydro-1H-1,3-benzodiazol-4-yl}pyrrolidin-3-yl)carbamate], the midpoint of inhibition, the IC50, lay at 38 nM.

Compound `O=c1[nH]c2c(Br)cccc2n1[C@H]1CC[C@@H](C(=O)Nc2cccc(CO)c2)CC1` [Example 231, Cis-4-(4-bromo-2-oxo-2,3-dihydro-1H-1,3-benzodiazol-1-yl)-N-[3-(hydroxymethyl)phenyl]cyclohexane-1-carboxamide] gave an IC50 of 8050 nM.

With `COc1ccc2c(c1)[nH]c(=O)n2C1CCN(C(=O)Nc2ccc(OC)c(Cl)c2)CC1` [Example 172, N-(3-Chloro-4-methoxyphenyl)-4-(5-methoxy-2-oxo-2,3-dihydro-1H-1,3-benzodiazol-1-yl)piperidine-1-carboxamide], the IC50 turned out to be 7790 nM.

Compound `Cc1cccc(NC(=O)[C@H]2CC[C@@H](n3c(=O)[nH]c4c(Br)cccc43)CC2)c1` [Example 143, (Cis)-4-(4-bromo-2-oxo-2,3-dihydro-1H-1,3-benzodiazol-1-yl)-N-(3-methylphenyl)cyclohexane-1-carboxamide] registered an IC50 of 1200 nM.

In turn, `COc1cc(NC(=O)[C@H]2CC[C@@H](n3c(=O)[nH]c4c(NCC(F)(F)F)cccc43)CC2)ccc1C` [Example 323, Cis-N-(3-methoxy-4-methylphenyl)-4-{2-oxo-4-[(2,2,2-trifluoroethyl)amino]-2,3-dihydro-1H-1,3-benzodiazol-1-yl}cyclohexane-1-carboxamide] gave an IC50 of 226 nM.

As for `Nc1cccc(-c2cccc3c2[nH]c(=O)n3C2CCN(C(=O)Nc3ccc(Cl)c(Cl)c3)CC2)c1` [Example 29, 4-[4-(3-Aminophenyl)-2-oxo-2,3-dihydro-1H-1,3-benzodiazol-1-yl]-N-(3,4-dichlorophenyl)piperidine-1-carboxamide], the concentration for half-maximal inhibition (IC50) amounted to 2060 nM.

Consider `COc1cc(NC(=O)[C@H]2CC[C@@H](n3c(=O)[nH]c4c(Nc5ncccn5)cccc43)CC2)ccc1C` [Example 279, Cis-N-(3-methoxy-4-methylphenyl)-4-{2-oxo-4-[(pyrimidin-2-yl)amino]-2,3-dihydro-1H-1,3-benzodiazol-1-yl}cyclohexane-1-carboxamide], for which 74.5 nM corresponded to half-maximal inhibition (IC50).

Take `COc1cc(NC(=O)[C@H]2CC[C@@H](n3c(=O)[nH]c4c(NC(=O)CCN)cccc43)CC2)ccc1C` [Example 284, Cis-4-[4-(3-aminopropanamido)-2-oxo-2,3-dihydro-1H-1,3-benzodiazol-1-yl]-N-(3-methoxy-4-methylphenyl)cyclohexane-1-carboxamide]: the IC50 was 1.73 nM.

The compound `COc1cc(NC(=O)[C@H]2CC[C@@H](n3c(=O)[nH]c4c(N5CCC(NC(=O)C(C)(C)O)C5)cccc43)CC2)ccc1C` (stereo partly drawn) [Example 317, Cis-4-{4-[3-(2-hydroxy-2-methylpropanamido)pyrrolidin-1-yl]-2-oxo-2,3-dihydro-1H-1,3-benzodiazol-1-yl}-N-(3-methoxy-4-methylphenyl)cyclohexane-1-carboxamide] displayed an IC50 of 39.1 nM.

Source of the values: patent US11970474B2, “Substituted benzodiazoles and use thereof in therapy” (THOMAS HELLEDAYS STIFTELSE FÖR MEDICINSK FORSKNING, priority 2018, dated 2024).
